Article PMC12040169 (PLOS Biology, 2025)

Test: in vitro
Conditions: human, hela cells, % viability

Compared with `COc1ccccc1NC(=O)N1C[C@@H]2C[C@H](C1)c1ccc(-c3cncnc3)c(=O)n1C2` [CBK289186], `CSCC(=O)N1C[C@@H]2C[C@H](C1)c1c(-c3cncnc3)ccc(=O)n1C2` [CBK289195] is lower in viability at 28.5 h, 10 µM: 114% for the first, 79.4% for the second.

Compared with `N#Cc1ccc(C(=O)N2C[C@@H]3C[C@H](C2)c2ccc(-c4cccc(C#N)c4)c(=O)n2C3)cc1` [CBK289187], `O=C(Nc1ccc2n(c1=O)C[C@H]1C[C@@H]2CN(C(=O)Nc2ccc(F)cc2)C1)c1ccco1` [CBK289205] is lower in viability at 28.5 h, 10 µM: 101% for the first, 85.4% for the second.

Compared with `O=C(O)CCC(=O)N1C[C@@H]2C[C@H](C1)c1c(-c3ccc(Cl)cc3)ccc(=O)n1C2` [CBK289190], `CC(=O)Nc1ccc(-c2ccc(=O)n3c2[C@@H]2C[C@@H](CN(C(=O)C(C)(C)C)C2)C3)cc1` [CBK289199] is higher in viability at 28.5 h, 10 µM: 85.9% for the first, 112% for the second.

Compared with `CC(=O)Nc1ccc(-c2ccc(=O)n3c2[C@@H]2C[C@@H](CN(C4CCOCC4)C2)C3)cc1` [CBK289201], `CC(=O)Nc1ccc(CN2C[C@@H]3OCC(=O)N(C)[C@@H]3C2)cc1` [CBK289240] is lower in viability at 28.5 h, 10 µM: 98% for the first, 85.5% for the second.

Going from `O=C(Nc1ccc2n(c1=O)C[C@H]1C[C@@H]2CN(C(=O)Cc2cccs2)C1)c1ccco1` [CBK289204] to `COc1cccc(N2C(=O)N[C@@H]3CCN(C(=O)c4cccs4)[C@@H]3C2=O)c1` [CBK289279], the viability at 28.5 h, 10 µM falls from 102% to 82.3%.

Compared with `CC1=C[C@@H](CNS(C)(=O)=O)[C@H](C(C)C)C[C@H]1CC(=O)Nc1ccccn1` [CBK289208], `CC1=C[C@@H](CNC(=O)c2ccccn2)[C@H](C(C)C)C[C@H]1CC(=O)O` [CBK289212] is lower in viability at 28.5 h, 10 µM: 89.3% for the first, 87.5% for the second.

Going from `CC1=C[C@@H](CNC(=O)NC2CCCCC2)[C@H](C(C)C)C[C@H]1CC(=O)O` [CBK289211] to `CC(C)[C@H]1NC(=O)[C@@H]2[C@@H](NC(=O)NC3CCCCC3)CCN2C1=O` [CBK289264], the viability at 28.5 h, 10 µM rises from 80.3% to 113%.

Compared with `CC(=O)N1CCN(C[C@@H]2C=C(C)[C@H](Cc3nnc(C)o3)C[C@H]2C(C)C)CC1` [CBK289219], `CC1=C[C@@H](CO)[C@H](C(C)C)C[C@H]1Cc1nnc(-c2ccncc2)o1` [CBK289222] is lower in viability at 28.5 h, 10 µM: 114% for the first, 110% for the second.

Compared with `CC1=C[C@@H](CO)[C@H](C(C)C)C[C@H]1Cc1nnc(Cc2c[nH]c3ccccc23)o1` [CBK289223], `CC1=C[C@@H](CO)[C@H](C(C)C)C[C@H]1Cc1nnc(-c2ccc(N(C)C)cc2)o1` [CBK289224] is lower in viability at 28.5 h, 10 µM: 89.1% for the first, 65% for the second.

Going from `CC(=O)c1ccc(NC(=O)N[C@H]2CCN3C(=O)[C@H]4CCCN4C(=O)[C@H]23)cc1` [CBK289228] to `CC(=O)c1ccc(NC(=O)N[C@H]2CCN3C(=O)[C@@H](Cc4ccccc4)NC(=O)[C@H]23)cc1` [CBK289229], the viability at 28.5 h, 10 µM falls from 108% to 85.9%.

Compared with `COc1cccc(NC(=O)N[C@H]2CCN3C(=O)[C@@H](Cc4ccccc4)NC(=O)[C@H]23)c1` [CBK289230], `O=C(N[C@H]1CCN2C(=O)[C@@H](Cc3ccccc3)NC(=O)[C@H]12)c1cnccn1` [CBK289231] is lower in viability at 28.5 h, 10 µM: 94.5% for the first, 83.6% for the second.

First: O=C(N[C@H]1CCN2C(=O)[C@@H](Cc3c[nH]c4ccccc34)NC(=O)[C@H]12)c1cnccn1 [CBK289232]
Second: O=C(N[C@H]1CCN2C(=O)c3cc(-c4ccccc4F)ccc3NC(=O)[C@H]12)c1cnccn1 [CBK289274]
The viability at 28.5 h, 10 µM of the first is higher: 89.3% for the first, 84.7% for the second.

First: CC1(C)[C@H](Cc2cc(CO)on2)C[C@@H]1N(Cc1ccncc1)Cc1ccncc1 [CBK289233]
Second: CN(C)Cc1cc(C[C@@H]2C[C@H](NCc3ccccn3)C2(C)C)no1 [CBK289313]
The viability at 28.5 h, 10 µM of the first is higher: 98.2% for the first, 92.3% for the second.

Going from `CS(=O)(=O)c1ccc(CN2C[C@@H]3OCC(=O)N(c4ccccc4)[C@@H]3C2)cc1` [CBK289237] to `NC(=O)CN1C(=O)CO[C@H]2CN(Cc3cnc4ccccc4c3)C[C@H]21` [CBK289242], the viability at 28.5 h, 10 µM rises from 93.2% to 106%.

Compared with `CC(=O)N[C@H]1C[C@@H](Cc2cc(CN3CCN(c4ccccc4)CC3)on2)C1(C)C` [CBK289241], `CC(C)(C)C(=O)N[C@H]1C[C@@H](Cc2cc(CN3CCOCC3)on2)C1(C)C` [CBK289247] is lower in viability at 28.5 h, 10 µM: 109% for the first, 96.2% for the second.

Compared with `CC1(C)[C@H](Cc2cc(CN3CCOCC3)on2)C[C@@H]1NC(=O)C1CC1` [CBK289246], `CC(C)(C)C(=O)N[C@H]1C[C@@H](Cc2cc(CO)on2)C1(C)C` [CBK289260] is lower in viability at 28.5 h, 10 µM: 113% for the first, 92.1% for the second.

Compared with `c1ccc(-c2cc(CC3(NCc4c[nH]c5ccccc45)COC3)no2)nc1` [CBK289250], `Cc1ccc(-c2c[nH]c([C@@H]3COCCN3Cc3c[nH]c4ccccc34)n2)cc1` [CBK289308] is higher in viability at 28.5 h, 10 µM: 102% for the first, 106% for the second.

Going from `COCc1cc(C[C@@H]2C[C@H](NC(=O)C(C)(C)C)C2(C)C)no1` [CBK289251] to `COCc1cc(C[C@@H]2C[C@H](NS(C)(=O)=O)C2(C)C)no1` [CBK289252], the viability at 28.5 h, 10 µM rises from 81.3% to 92.5%.

Going from `Fc1ccc(-c2c[nH]c([C@@H]3COCCN3Cc3ncc[nH]3)n2)cc1` [CBK289263] to `Cc1ccc(-c2c[nH]c([C@@H]3COCCN3Cc3c[nH]cn3)n2)cc1` [CBK289315], the viability at 28.5 h, 10 µM falls from 95.5% to 94.8%.

First: CSCC(=O)N1CC[C@H](NC(=O)NC2CCCCC2)[C@H]1C(=O)N1CCC[C@@H]1C(N)=O [CBK289265]
Second: Cn1cccc1C(=O)N[C@H]1C[C@@H]2C(=O)N[C@H]3CCN(C(=O)C4CCCC4)[C@@H]3C(=O)N2C1 [CBK289272]
The viability at 28.5 h, 10 µM of the first is higher: 124% for the first, 97.1% for the second.

First: COc1ccc(C(=O)N2CC[C@@H]3NC(=O)[C@H]4C[C@H](NC(=O)C5CCC5)CN4C(=O)[C@H]32)cc1 [CBK289268]
Second: CC(=O)N1CC[C@@H]2NC(=O)[C@H]3C[C@H](NC(=O)c4ccc(F)c(Cl)c4)CN3C(=O)[C@H]21 [CBK289270]
The viability at 28.5 h, 10 µM of the first is higher: 111% for the first, 87% for the second.

Compared with `Cn1cccc1C(=O)N[C@H]1C[C@@H]2C(=O)N[C@H]3CCN(C(=O)CC(C)(C)C)[C@@H]3C(=O)N2C1` [CBK289271], `CC(C)(C)c1ccc(C(=O)N2CC[C@H]3NC(=O)N(Cc4ccccc4)C(=O)[C@H]32)cc1` [CBK289294] is lower in viability at 28.5 h, 10 µM: 111% for the first, 86% for the second.

Going from `O=C1Nc2ccc(-c3cccc(C(F)(F)F)c3)cc2C(=O)N2C[C@H](O)C[C@@H]12` [CBK289273] to `N[C@H]1CCN2C(=O)c3cc(-c4ccc(F)cc4F)ccc3NC(=O)[C@H]12` [CBK289345], the viability at 28.5 h, 10 µM falls from 106% to 94.4%.

Compared with `COCC(=O)N1CC[C@@H]2[C@H]1C(=O)N(c1ccc(OC)cc1)C(=O)N2Cc1ccccc1` [CBK289280], `COc1ccc(C(=O)N2CC[C@H]3NC(=O)N(Cc4ccccc4)C(=O)[C@H]32)cc1` [CBK289293] is higher in viability at 28.5 h, 10 µM: 92.9% for the first, 94.1% for the second.

Going from `COc1ccc(C(=O)N2CC[C@H]3NC(=O)N(c4ccccc4)C(=O)[C@H]32)cc1` [CBK289281] to `N#Cc1ccc(C(=O)N2CC[C@H]3NC(=O)N(c4ccccc4)C(=O)[C@H]32)cc1` [CBK289282], the viability at 28.5 h, 10 µM falls from 93.1% to 80.5%.

Compared with `CC(C)c1ccc(N2C(=O)N[C@@H]3CCN(C(=O)c4cccs4)[C@@H]3C2=O)cc1` [CBK289286], `CC(C)c1ccc(N2C(=O)N[C@@H]3CCN(C(=O)COc4ccccc4)[C@@H]3C2=O)cc1` [CBK289288] is higher in viability at 28.5 h, 10 µM: 90.7% for the first, 98.2% for the second.

Compared with `COc1ccc(S(=O)(=O)N2CC[C@H]3NC(=O)N(c4ccc(C(C)C)cc4)C(=O)[C@H]32)cc1` [CBK289290], `COc1ccc(C(=O)N2CC[C@H]3NC(=O)N(c4ccc(F)cc4)C(=O)[C@H]32)cc1` [CBK289325] is lower in viability at 28.5 h, 10 µM: 107% for the first, 86.9% for the second.

Going from `CCC(CC)C(=O)N1CC[C@H]2NC(=O)N(Cc3ccccc3)C(=O)[C@H]21` [CBK289291] to `O=C(O)CC1(CC(=O)N2CC[C@H]3NC(=O)N(c4ccc(F)cc4)C(=O)[C@H]32)CCCC1` [CBK289327], the viability at 28.5 h, 10 µM rises from 88.7% to 97.7%.

Compared with `COc1ccc(-c2c[nH]c([C@@H]3COCCN3Cc3ccccc3O)n2)cc1` [CBK289296], `COc1ccc(-c2c[nH]c([C@@H]3COCCN3Cc3ccc(C(=O)O)cc3)n2)cc1` [CBK289305] is lower in viability at 28.5 h, 10 µM: 85.1% for the first, 84.1% for the second.

Going from `CS(=O)(=O)c1ccc(-c2c[nH]c([C@@H]3COCCN3C3CCCCC3)n2)cc1` [CBK289299] to `CC(C)N1CCOC[C@H]1c1nc(-c2ccc(S(C)(=O)=O)cc2)c[nH]1` [CBK289301], the viability at 28.5 h, 10 µM falls from 102% to 91.2%.

Compared with `CS(=O)(=O)c1ccc(-c2c[nH]c([C@@H]3COCCN3Cc3ccc(C(=O)O)cc3)n2)cc1` [CBK289306], `O=C(O)c1ccc(CN2CCOC[C@H]2c2nc(-c3ccc(C(F)(F)F)cc3)c[nH]2)cc1` [CBK289317] is higher in viability at 28.5 h, 10 µM: 97.3% for the first, 115% for the second.

Going from `CN(C)Cc1cc(C[C@@H]2C[C@H](NS(=O)(=O)c3ccccc3)C2(C)C)no1` [CBK289307] to `Cn1cc(CN2CCOC[C@H]2c2nc(C(C)(C)C)c[nH]2)c2ccccc21` [CBK289322], the viability at 28.5 h, 10 µM rises from 112% to 118%.

First: O=C(Nc1ccc([C@@H](O)[C@H]2COCC(=O)N2Cc2cccnc2)cc1)c1ccccc1 [CBK289319]
Second: CS(=O)(=O)c1ccc(-c2c[nH]c([C@@H]3COCCN3Cc3c[nH]c4ccccc34)n2)cc1 [CBK289321]
The viability at 28.5 h, 10 µM of the first is higher: 111% for the first, 92% for the second.

First: O=C1N[C@@H]2CCN(S(=O)(=O)c3cccs3)[C@@H]2C(=O)N1c1ccc(F)cc1 [CBK289326]
Second: O=C(N[C@H]1CCN2C(=O)c3ccccc3NC(=O)[C@H]12)c1cccc(F)c1 [CBK289332]
The viability at 28.5 h, 10 µM of the first is lower: 89.1% for the first, 89.3% for the second.

Compared with `COc1ccc(-c2ccc3c(c2)C(=O)N2CC[C@H](NC(=O)C4CCCC4)[C@H]2C(=O)N3)cc1` [CBK289330], `COc1ccc(-c2ccc3c(c2)C(=O)N2CC[C@H](NC(=O)CCC(=O)O)[C@H]2C(=O)N3)cc1` [CBK289331] is lower in viability at 28.5 h, 10 µM: 108% for the first, 84.4% for the second.

Going from `CC(C)NC(=O)N[C@H]1CCN2C(=O)c3cc(-c4ccccc4F)ccc3NC(=O)[C@H]12` [CBK289335] to `CC(C)NC(=O)N[C@H]1CCN2C(=O)c3ccc(Cl)cc3NC(=O)[C@H]12` [CBK289343], the viability at 28.5 h, 10 µM rises from 84.2% to 99.5%.

Going from `O=C1Nc2ccc(-c3ccsc3)cc2C(=O)N2CC[C@H](NC(=O)N3CCOCC3)[C@@H]12` [CBK289338] to `Cc1cccc(-c2ccc3c(c2)C(=O)N2CC[C@H](NC(=O)N4CCOCC4)[C@H]2C(=O)N3)c1C` [CBK289347], the viability at 28.5 h, 10 µM falls from 109% to 88.1%.
